Results as given in PubChem BioAssay (NCI).
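A five-concentration, 48-hour dose response in 96-well plates underlies each endpoint, interpolated linearly between surrounding concentrations. Abbreviation: GI50, concentration required for 50% inhibition of growth. TGI denotes the concentration required for complete inhibition of growth.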

How the values were obtained:
Assay in all cases: growth of human tumour cells (NCI), 48 h
HOP-62 NSCLC = system: HOP-62 NSCLC
K-562 leukemia = system: K-562 leukemia
M14 melanoma = system: M14 melanoma
MDA-MB-435 = system: MDA-MB-435
NCI-H522 lung = system: NCI-H522 lung
NCI/ADR-RES ovarian = system: NCI/ADR-RES ovarian
OVCAR-3 ovarian = system: OVCAR-3 ovarian
SF-268 CNS = system: SF-268 CNS
SK-MEL-5 melanoma = system: SK-MEL-5 melanoma
SR leukemia = system: SR leukemia

SMILES | GI50 (HOP-62 NSCLC) [nM] | TGI (HOP-62 NSCLC) [nM] | GI50 (K-562 leukemia) [nM] | TGI (K-562 leukemia) [nM] | GI50 (M14 melanoma) [nM] | TGI (M14 melanoma) [nM] | GI50 (MDA-MB-435) [nM] | TGI (MDA-MB-435) [nM] | GI50 (NCI-H522 lung) [nM] | TGI (NCI-H522 lung) [nM] | GI50 (NCI/ADR-RES ovarian) [nM] | TGI (NCI/ADR-RES ovarian) [nM] | GI50 (OVCAR-3 ovarian) [nM] | TGI (OVCAR-3 ovarian) [nM] | GI50 (SF-268 CNS) [nM] | TGI (SF-268 CNS) [nM] | GI50 (SK-MEL-5 melanoma) [nM] | TGI (SK-MEL-5 melanoma) [nM] | GI50 (SR leukemia) [nM] | TGI (SR leukemia) [nM]
CCN1C(=O)N(CC)C2C1NN=c1s/c(=C\c3ccccc3Br)c(=O)n12 (centres undefined) | 48.5 | 20400 | 32.9 | > 100000 | 31.8 | 13800 | < 13.7 | 41.6 | 19 | 1120 | 22.8 | 15300 | 26.6 | 76.4 | 61.2 | > 59500 | 31.9 | 133 | 23 | > 100000
COc1ccc(OC)c(Cn2cc3c(c2)-c2oncc2CC3)c1 | 4080 | > 100000 | 762 | > 57800 | 2150 | 9480 | 316 | 1420 | 1630 | 4890 | 2010 | 6680 | 2290 | 5980 | 6220 | > 100000 | 2610 | 8990 | 1160 | 18200
CC(C)=CCC/C(C)=C/CC/C(C)=C/CC/C=C(\C)CC/C=C(\C)CCC(=O)Nc1ccn(C2OC(CO)C(O)C2(F)F)c(=O)n1 (centres undefined) | 50.7 | 2380 | 989 | 24900 | 51.9 | 1200 | 144 | 7580 | 85.4 | 5830 | 116 | 16600 |  | 4480 | 85.3 | 3510 | 168 | 4750 | 39.1 | 374
COc1ccc2cc(-c3c(-c4ccncc4)nc(-c4ccc(S(C)=O)cc4)n3C)ccc2c1 (centres undefined) | > 21100 | > 25000 | 15600 | > 25000 | > 25000 | > 25000 | 14600 | > 25000 | > 18500 | > 25000 | > 22900 | > 25000 | 15300 | > 25000 | > 25000 | > 25000 | 5580 | > 21200 | > 25000 | > 25000
